Tests used:
[1] = Cell viability assay (MTT), L929; format: cell-based, Mus musculus; conditions: mouse, L929 fibroblast cells
How it was run: (§1)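 L929 and VERO cells seeded at 1.0 × 10^4/well, attached 24 h, then exposed 24 h to compounds at 0.9–125.00 μg/ml (from DMSO stock). MTT (1 mg/ml) added for 2 h at 37 °C, formazan dissolved in DMSO, OD read at 550 nm. Viability expressed as percentage of 2.5% DMSO-treated controls; triplicate.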

[2] = test system: human lung carcinoma A549 cells; test: In vitro antiproliferative assay (SRB), A549; format: cell-based; conditions: mean ± SD; for IC50: Homo sapiens, A549, 72 h exposure
Protocol: (§2) Biphenotypic B myelomonocytic leukemia MV4-11, human lung carcinoma A549, human breast carcinoma MCF-7, and normal mouse fibroblast BALB/3T3 cells were obtained from American Type Culture Collection (Rockville, Maryland, USA). All the cell lines are being maintained at the Institute of Immunology and Experimental Therapy, Wroclaw, Poland. MV4-11 cells were cultured in RPMI 1640 medium (Gibco, UK) with 2 mM L-glutamine adjusted to contain 1.0 mM sodium pyruvate, and 10% fetal bovine serum (FBS) (all from Sigma-Aldrich, Germany). A549 cells were cultured in RPMI 1640+ Opti-MEM (1:1) (both from Gibco, UK), MCF-7 cells in Eagle medium (IIET, Wroclaw, Poland), BALB/3T3 in Dulbecco medium (IIET, Poland) supplemented with 2 mM L-glutamine and 1.0 mM sodium pyruvate, 10% fetal bovine serum (all from Sigma-Aldrich, Germany). The MCF-7 cell culture was supplemented with 0.8 mg/l of insulin (Sigma-Aldrich, Germany). All culture media were supplemented with 100 units/ml penicillin, and 100 µg/ml streptomycin (both from Polfa Tarchomin S.A., Poland). All cell lines were grown at 37 °C with 5% CO2 humidified atmosphere (Łączkowski et al. [2014], [2016a]). Prior to usage, the compounds were dissolved in DMSO and culture medium (1: 9) to the concentration of 1 mg/ml, and subsequently diluted in culture medium to reach the required concentrations (0.1, 1, 10, and 100 µg/ml) (Łączkowski et al. [2014], [2016a]). Twenty-four hours prior to the addition of the tested compounds, the cells counted using Burker hemocytometer were plated in 96-well plates (Sarstedt, Germany) at a density of 1 × 10^4 cells per well. The assay was performed after 72 h of exposure to varying concentrations of the tested agents. The in vitro cytotoxic effect of all agents was examined using the SRB assay for adherent cells (A549, MCF-7, and BALB/3T3) or MTT assay for leukemia cells (MV4-11) as described previously. […] Each compound in each concentration was tested in triplicate in a single experiment, which was repeated 3–7 times (Rubinstein et al. [1990]; Bramson et al. [1995]). Cells were attached to the bottom of plastic wells by fixing them with cold 50% TCA (trichloroacetic acid, POCH, Gliwice, Poland) on top of the culture medium in each well. The plates were incubated at 4 °C for 1 h and then washed five times with tap water. The cellular material fixed with TCA was stained with 0.1% sulforhodamine B (SRB, Sigma-Aldrich, Germany) and dissolved in 1% acetic acid (POCH, Gliwice, Poland) for 30 min. Unbound dye was removed by rinsing (4×) in 1% acetic acid. The protein-bound dye was extracted with 10 mM unbuffered Tris base (Sigma-Aldrich, Germany) for determination of the optical density (λ = 540 nm) in a computer-interfaced, 96-well Synergy H4 (BioTek Instruments USA) photometer microtiter plate reader (Sidoryk et al. [2012]).

[3] = Cell viability assay (MTT), VERO; format: cell-based, Cercopithecus aethiops; conditions: African green monkey (Cercopithecus aethiops), VERO kidney epithelial cells
How it was run: as §1

[4] = test system: human breast carcinoma MCF-7 cells; test: In vitro antiproliferative assay (SRB), MCF-7; format: cell-based; conditions: Homo sapiens, MCF7, 72 h exposure, mean ± SD
Protocol: as §2

[5] = test system: normal mouse fibroblast Balb/3T3 cells; test: In vitro cytotoxicity (SRB), Balb/3T3; format: cell-based; conditions: Mus musculus, BALB/3T3, 72 h exposure, mean ± SD
Protocol: as §2

| IC50 [2] [µg/mL] | IC50 [4] [µg/mL] | melting point [°C] | Structure (SMILES) | viability at 24 h, 0.9 µg/ml [1] [%] | viability at 24 h, 1.8 µg/ml [1] [%] | viability at 24 h, 3.9 µg/ml [1] [%] | viability at 24 h, 7.8 µg/ml [1] [%] | viability at 24 h, 15.6 µg/ml [1] [%] | viability at 24 h, 31.2 µg/ml [1] [%] | viability at 24 h, 62.5 µg/ml [1] [%] | viability at 24 h, 125 µg/ml [1] [%] | viability at 24 h, 0.9 µg/ml [3] [%] | viability at 24 h, 1.8 µg/ml [3] [%] | viability at 24 h, 3.9 µg/ml [3] [%] | viability at 24 h, 7.8 µg/ml [3] [%] | viability at 24 h, 15.6 µg/ml [3] [%] | viability at 24 h, 31.2 µg/ml [3] [%] | viability at 24 h, 62.5 µg/ml [3] [%] | viability at 24 h, 125 µg/ml [3] [%] | IC50 [5] [µg/mL] | other results |
| --- | --- | --- | --- | --- | --- | --- | --- | --- | --- | --- | --- | --- | --- | --- | --- | --- | --- | --- | --- | --- | --- |
| 24.7 ± 6.1 | 3.18 ± 0.192 | 226 to 230 | C/C(=N\Nc1nc(-c2ccc(Br)cc2)cs1)c1ccc(Nc2nc(N)nc(N)n2)cc1 [Compound 4d, (E)-N^2-(4-(1-(2-(4-(4-bromophenyl)-1,3-thiazol-2-yl)hydrazinylidene)ethyl)phenyl)-1,3,5-triazine-2,4,6-triamine] | 99.9 | 97.8 | 99.9 | 93.7 | 108 | 113 | 115 | 113 | 99.9 | 94.4 | 90.1 | 86 | 104 | 114 | 100 | 112 | 65.2 ± 24.5 |  |
| 45.4 ± 18.3 | 8.41 ± 0.373 | 248 to 251 | C/C(=N\Nc1nc(-c2ccc(I)cc2)cs1)c1ccc(Nc2nc(N)nc(N)n2)cc1 [Compound 4e, (E)-N^2-(4-(1-(2-(4-(4-iodophenyl)-1,3-thiazol-2-yl)hydrazinylidene)ethyl)phenyl)-1,3,5-triazine-2,4,6-triamine] | 96 | 97.6 | 99.1 | 88.8 | 98.8 | 108 | 109 | 101 | 100 | 100 | 97 | 87.3 | 101 | 113 | 117 | 113 | > 100 |  |
|  | 5.73 ± 2.05 | > 300 | C/C(=N\Nc1nc(-c2ccccc2)cs1)c1ccc(Nc2nc(N)nc(N)n2)cc1 [Compound 4k, (E)-N^2-(4-(1-(2-(4-phenyl-1,3-thiazol-2-yl)hydrazinylidene)ethyl)phenyl)-1,3,5-triazine-2,4,6-triamine] | 109 | 107 | 106 | 101 | 106 | 111 | 116 | 130 | 91.9 | 95.5 | 99.3 | 95.7 | 104 | 106 | 113 | 113 | > 100 | IC50 A549 ([2]; 72 h exposure): no antiproliferative activity |
